Results as given in US9745291B2, “PRMT5 inhibitors containing a dihydro- or tetrahydroisoquinoline and uses thereof” (Epizyme, Inc., priority 2012, dated 2017).

Tests used:
Z-138 cell line = experiment: Z-138 Proliferation Assay (Cell Titer Glo, 5 days); format: cell-based; settings: Homo sapiens, Z-138, 120 h, Z-138 cells
Description: [formula] Z-138 Proliferation Assay
Z-138 suspension cells were purchased from ATCC (American Type Culture Collection, Manassas, Va.). RPMI/Glutamax medium, penicillin-streptomycin, heat inactivated fetal bovine serum were purchased from Life Technologies, Grand Island, N.Y., USA. V-bottom polypropylene 384-well plates were purchased from Greiner Bio-One, Monroe, N.C., USA. Cell culture 384-well white opaque plates were purchased from Perkin Elmer, Waltham, Mass., USA. Cell-Titer Glo® was purchased from Promega Corporation, Madison, Wis., USA. SpectraMax M5 plate reader was purchased from Molecular Devices LLC, Sunnyvale, Calif., USA.
Z-138 suspension cells were maintained in growth medium (RPMI 1640 supplemented with 10% v/v heat inactivated fetal bovine serum and cultured at 37° C. under 5% CO2 Under assay conditions, cells were incubated in assay medium (RPMI 1640 supplemented with 10% v/v heat inactivated fetal bovine serum and 100 units/mL penicillin-streptomycin) at 37° C. under 5% CO2.
For the assessment of the effect of compounds on the proliferation of the Z-138 cell line, exponentially growing cells were plated in 384-well white opaque plates at a density of 10,000 cells/ml in a final volume of 50 μl of assay medium. A compound source plate was prepared by performing triplicate nine-point 3-fold serial dilutions in DMSO, beginning at 10 mM (final top concentration of compound in the assay was 20 μM and the DMSO was 0.2%). A 100 nL aliquot from the compound stock plate was added to its respective well in the cell plate. […] After addition of compounds, assay plates were incubated for 5 days at 37° C., 5% CO2, relative humidity >90%.
Cell viability was measured by quantitation of ATP present in the cell cultures, adding 35 μl of Cell Titer Glo® reagent to the cell plates. Luminescence was read in the SpectraMax M5 microplate reader. The concentration of compound inhibiting cell viability by 50% was determined using a 4-parametric fit of the normalized dose response curves.

PRMT5/MEP50 = PRMT5/MEP50 (Homo sapiens (Human), UniProt O14744); experiment: PRMT5 Biochemical Assay (PRMT5/MEP50 enzyme assay on peptide substrate, 3H-SAM Flashplate); settings: PRMT5 biochemical assay; read-out: Biochemical IC50
[1] = test system: symmetric di-methyl arginine in Z-138 cells; experiment: Z-138 Methylation Assay (In Cell Western for symmetric di-methyl arginine and DNA content); format: cell-based; settings: Homo sapiens, Z-138, Z-138 cells, read-out: ICW EC50
Description: [formula] Where top and bottom are the normally allowed to float, but may be fixed at 100 or 0 respectively in a 3-parameter fit. The Hill Coefficient normally allowed to float but may also be fixed at 1 in a 3-parameter fit. Y is the % inhibition and X is the compound concentration. Z-138 Methylation Assay
Z-138 suspension cells were purchased from ATCC (American Type Culture Collection, Manassas, Va.). RPMI/Glutamax medium, penicillin-streptomycin, heat inactivated fetal bovine serum, and D-PBS were purchased from Life Technologies, Grand Island, N.Y., USA. Odyssey blocking buffer, 800CW goat anti-rabbit IgG (H+L) antibody, and Licor Odyssey infrared scanner were purchased from Licor Biosciences, Lincoln, Nebr., USA. Symmetric di-methyl arginine antibody was purchased from EMD Millipore, Billerica, Mass., USA. 16% Paraformaldehyde was purchased from Electron Microscopy Sciences, Hatfield, Pa., USA.
Z-138 suspension cells were maintained in growth medium (RPMI 1640 supplemented with 10% v/v heat inactivated fetal bovine serum and 100 units/mL penicillin-streptomycin) and cultured at 37° C. under 5% CO2.
Cell Treatment, in Cell Western (ICW) for Detection of Symmetric Di-Methyl Arginine and DNA Content.
Z-138 cells were seeded in assay medium at a concentration of 50,000 cells per mL to a 384-well cell culture plate with 50 μL per well. Compound (100 nL) from 384 well source plates was added directly to 384 well cell plate. Plates were incubated at 37° C., 5% CO2 for 96 hours. After four days of incubation, 40 μL of cells from incubated plates were added to poly-D-lysine coated 384 well culture plates (BD Biosciences 356697). Plates were incubated at room temperature for 30 minutes then incubated at 37° C., 5% CO2 for 5 hours. After the incubation, 40 μL per well of 8% paraformaldehyde in PBS (16% paraformaldahyde was diluted to 8% in PBS) was added to each plate and incubated for 30 minutes. Plates were transferred to a Biotek 405 plate washer and washed 5 times with 100 μL per well of wash buffer (1×PBS with 0.1% Triton X-100 (v/v)). Next 30 μL per well of Odyssey blocking buffer were added to each plate and incubated 1 hour at room temperature. Blocking buffer was removed and 20 μL per well of primary antibody was added (symmetric di-methyl arginine diluted 1:100 in Odyssey buffer with 0.1% Tween 20 (v/v)) and plates were incubated overnight (16 hours) at 4° C. Plates were washed 5 times with 100 μL per well of wash buffer. Next 20 μL per well of secondary antibody was added (1:200 800CW goat anti-rabbit IgG (H+L) antibody, 1:1000 DRAQ5 (Biostatus limited) in Odyssey buffer with 0.1% Tween 20 (v/v)) and incubated for 1 hour at room temperature. The plates were washed 5 times with 100 μL per well wash buffer then 1 time with 100 μL per well of water. Plates were allowed to dry at room temperature then imaged on the Licor Odyssey machine which measures integrated intensity at 700 nm and 800 nm wavelengths. Both 700 and 800 channels were scanned.
First, the ratio for each well was determined by:
Each plate included fourteen control wells of DMSO only treatment (minimum inhibition) as well as fourteen control wells for maximum inhibition treated with 3 μM of a reference compound (Background wells). The average of the ratio values for each control type was calculated and used to determine the percent inhibition for each test well in the plate. Reference compound was serially diluted three-fold in DMSO for a total of nine test concentrations, beginning at 3 μM. Percent inhibition was determined and IC50 curves were generated using triplicate wells per concentration of compound. […]

Chain of PRMT5/MEP50 (O14744 other isoform, or with tags, fused parts or gaps): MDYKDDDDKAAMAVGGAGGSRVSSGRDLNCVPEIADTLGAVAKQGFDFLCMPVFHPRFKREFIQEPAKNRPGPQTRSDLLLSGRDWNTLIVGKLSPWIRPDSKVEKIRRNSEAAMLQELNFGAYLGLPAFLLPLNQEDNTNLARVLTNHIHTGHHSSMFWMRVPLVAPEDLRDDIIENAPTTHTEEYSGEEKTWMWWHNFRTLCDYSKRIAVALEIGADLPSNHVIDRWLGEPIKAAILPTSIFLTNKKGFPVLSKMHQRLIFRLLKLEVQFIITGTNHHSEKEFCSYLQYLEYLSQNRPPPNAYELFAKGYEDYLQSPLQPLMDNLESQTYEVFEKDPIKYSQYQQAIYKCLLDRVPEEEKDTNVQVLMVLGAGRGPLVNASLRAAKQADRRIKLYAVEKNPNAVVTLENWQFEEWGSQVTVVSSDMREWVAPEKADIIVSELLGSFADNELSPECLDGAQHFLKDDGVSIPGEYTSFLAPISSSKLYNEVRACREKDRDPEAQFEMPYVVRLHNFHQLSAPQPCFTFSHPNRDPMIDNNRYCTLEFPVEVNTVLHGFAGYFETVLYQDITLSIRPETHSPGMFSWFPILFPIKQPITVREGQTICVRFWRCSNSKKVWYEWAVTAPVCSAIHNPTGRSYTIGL
Chain of PRMT5/MEP50 (Q9BQA1 other isoform, or with tags, fused parts or gaps partner): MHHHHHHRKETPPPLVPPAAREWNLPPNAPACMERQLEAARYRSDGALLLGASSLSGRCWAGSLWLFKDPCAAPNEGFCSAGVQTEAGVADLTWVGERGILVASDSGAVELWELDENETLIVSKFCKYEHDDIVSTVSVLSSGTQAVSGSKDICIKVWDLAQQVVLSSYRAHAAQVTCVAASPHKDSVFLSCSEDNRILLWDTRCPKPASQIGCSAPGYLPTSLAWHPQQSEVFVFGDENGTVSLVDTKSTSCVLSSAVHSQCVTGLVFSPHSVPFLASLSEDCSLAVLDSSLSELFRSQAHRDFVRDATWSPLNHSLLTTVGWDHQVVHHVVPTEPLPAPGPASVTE

Row | Compound | IC50 (PRMT5/MEP50) [nM] | EC50 [1] [nM] | EC50 (Z-138 cell line) [nM]
1 | O=C(COc1cccc2cccnc12)NCC(O)CN1CCc2ccccc2C1 (stereo not shown) [Compound 6, N-(3-(3,4-dihydroisoquinolin-2(1H)-yl)-2-hydroxypropyl)-2-(quinolin-8-yloxy)acetamide] | < 100 | – | 101 to 1000
2 | O=C(COc1cccc2cccnc12)NC[C@H](O)CN1CCc2ccccc2C1 [Compound 44, (S)—N-(3-(3,4-dihydroisoquinolin-2(1H)-yl)-2-hydroxypropyl)-2-(quinolin-8-yloxy)acetamide] | – | 101 to 1000 | –
3 | O=C(COc1cccc2cccnc12)NC[C@@H](O)CN1CCc2ccccc2C1 [Compound 45, (R)—N-(3-(3,4-dihydroisoquinolin-2(1H)-yl)-2-hydroxypropyl)-2-(quinolin-8-yloxy)acetamide] | < 100 | – | 101 to 1000
4 | O=C(COc1ccccc1N1CCNCC1)NCC(O)CN1CCc2ccccc2C1 (stereo not shown) [Compound 79] | < 100 | – | 1000 to 10000
5 | O=C(COc1ccccc1C1CCCNC1)NCC(O)CN1CCc2ccccc2C1 (stereo not shown) [Compound 117] | – | 101 to 1000 | 1000 to 10000
6 | O=C(COc1cccc(-c2c[nH]cn2)c1)NC[C@@H](O)CN1CCc2ccccc2C1 [Compound 195] | 1000 to 10000 | > 1000 | > 20000
7 | O=C(COc1cccc(C(=O)NCCNCCO)c1)NC[C@@H](O)CN1CCc2ccccc2C1 [Compound 196] | 101 to 1000 | > 1000 | > 20000
8 | O=C(COc1cccc(N2CCNCC2)c1)NC[C@@H](O)CN1CCc2ccccc2C1 [Compound 197] | < 100 | 101 to 1000 | 10000 to 50000
9 | CC(=O)Nc1cccc(OCC(=O)NC[C@@H](O)CN2CCc3ccccc3C2)c1C1CCCNC1 (stereo partly shown) [Compound 199] | 1000 to 10000 | > 1000 | > 20000
10 | O=C(CCc1nc2ccccc2o1)NC[C@@H](O)CN1CCc2ccccc2C1 [Compound 200] | 1000 to 10000 | > 1000 | > 20000
11 | CNCCN(C)S(=O)(=O)c1ccccc1OCC(=O)NC[C@@H](O)CN1CCc2ccccc2C1 [Compound 201] | < 100 | < 100 | 1000 to 10000
12 | O=C(CCn1cnc2ccccc21)NC[C@@H](O)CN1CCc2ccccc2C1 [Compound 206] | 1000 to 10000 | > 1000 | > 20000
13 | O=C(CCc1nc2cc(Cl)ccc2[nH]1)NC[C@@H](O)CN1CCc2ccccc2C1 [Compound 208] | 101 to 1000 | 101 to 1000 | 10000 to 50000
14 | CC1CN(S(=O)(=O)c2ccccc2OCC(=O)NC[C@@H](O)CN2CCc3ccccc3C2)CCN1 (stereo partly shown) [Compound 210] | 101 to 1000 | 101 to 1000 | 10000 to 50000
15 | O=C(CCc1nc2cc(F)ccc2[nH]1)NC[C@@H](O)CN1CCc2ccccc2C1 [Compound 213] | 101 to 1000 | 101 to 1000 | > 20000
16 | CN(CCN1CCCCC1)S(=O)(=O)c1ccccc1OCC(=O)NC[C@@H](O)CN1CCc2ccccc2C1 [Compound 214] | < 100 | < 100 | 101 to 1000
17 | NC1CN(S(=O)(=O)c2ccccc2OCC(=O)NC[C@@H](O)CN2CCc3ccccc3C2)CC1O (stereo partly shown) [Compound 215] | < 100 | > 1000 | > 20000
18 | CN1CCN(S(=O)(=O)c2ccccc2OCC(=O)NC[C@@H](O)CN2CCc3ccccc3C2)CC1CO (stereo partly shown) [Compound 233] | 1000 to 10000 | – | –
19 | O=C(COc1ccccc1[C@H]1CCCCN1)NC[C@@H](O)CN1CCc2ccccc2C1 [Compound 235] | 1000 to 10000 | – | –
20 | [2H]C1([2H])Cc2ccccc2C([2H])([2H])N1C[C@@H](O)CNC(=O)CCc1nc2ccccc2[nH]1 [Compound 251] | 101 to 1000 | – | –
21 | CN(C)S(=O)(=O)c1c(OCC(=O)NC[C@@H](O)CN2CCc3ccccc3C2)cccc1N1CCNCC1 [Compound 252] | – | < 100 | < 100
22 | Cn1c(CCC(=O)NC[C@@H](O)CN2CCc3ccccc3C2)nc2ccccc21 [Compound 268] | 1000 to 10000 | – | –
23 | O=C(COc1ccccc1N1CCNCC1)NC[C@@H](O)CN1CCc2ccccc2C1 [Compound 270] | 1000 to 10000 | – | –
24 | CN1CC[C@@H](CN(C)S(=O)(=O)c2ccccc2OCC(=O)NC[C@@H](O)CN2CCc3ccccc3C2)C1 [Compound 272] | < 100 | – | –

Second part, led by results:

Row | IC50 (PRMT5/MEP50) [nM] | EC50 [1] [nM] | Compound | EC50 (Z-138 cell line) [nM]
25 | 101 to 1000 | > 1000 | O=C(COc1cccc(-n2ccnc2)c1)NC[C@@H](O)CN1CCc2ccccc2C1 [Compound 194] | > 20000
26 | < 100 | > 1000 | CN(CCN)S(=O)(=O)c1ccccc1OCC(=O)NC[C@@H](O)CN1CCc2ccccc2C1 [Compound 198] | > 20000
27 | < 100 | 101 to 1000 | CC1CNCCN1S(=O)(=O)c1ccccc1OCC(=O)NC[C@@H](O)CN1CCc2ccccc2C1 (stereo partly shown) [Compound 202] | 10000 to 50000
28 | 101 to 1000 | 101 to 1000 | CC1CN(C)CCN1S(=O)(=O)c1ccccc1OCC(=O)NC[C@@H](O)CN1CCc2ccccc2C1 (stereo partly shown) [Compound 203] | > 20000
29 | 101 to 1000 | > 1000 | CC(Oc1ccccc1[C@@H]1CCCNC1)C(=O)NC[C@@H](O)CN1CCc2ccccc2C1 (stereo partly shown) [Compound 204] | 10000 to 50000
30 | 1000 to 10000 | > 1000 | CC(Oc1ccccc1[C@H]1CCCNC1)C(=O)NC[C@@H](O)CN1CCc2ccccc2C1 (stereo partly shown) [Compound 205] | 10000 to 50000
31 | 101 to 1000 | 101 to 1000 | Cc1ccc2[nH]c(CCC(=O)NC[C@@H](O)CN3CCc4ccccc4C3)nc2c1 [Compound 207] | 10000 to 50000
32 | 101 to 1000 | 101 to 1000 | CN(C[C@@H](O)CN1CCc2ccccc2C1)C(=O)CCc1nc2ccccc2[nH]1 [Compound 209] | 10000 to 50000
33 | 1000 to 10000 | > 1000 | CC1CN(S(=O)(=O)c2ccccc2OCC(=O)NC[C@@H](O)CN2CCc3ccccc3C2)CCN1C (stereo partly shown) [Compound 211] | > 20000
34 | 101 to 1000 | 101 to 1000 | CN(C)C1CN(S(=O)(=O)c2ccccc2OCC(=O)NC[C@@H](O)CN2CCc3ccccc3C2)CC1O (stereo partly shown) [Compound 216] | > 20000
35 | 1000 to 10000 | – | O=C(CCn1cnc2ccccc21)NC[C@H](O)CN1CCc2ccccc2C1 [Compound 248] | –
36 | 1000 to 10000 | – | N-(3-(3,4-dihydroisoquinolin-2(1H)-yl)-2-hydroxypropyl)-2-((5,6,7,8-tetrahydronaphthalen-1-yl)oxy)acetamide [Compound 62] | –
